What was measured:
neurokinin receptor NK2 = neurokinin receptor NK2 (Homo sapiens, UniProt P21452); test: CEREP NK2 (h) (agonist radioligand); format: binding; conditions: read-out: Percentage of inhibition/potentiation from control
RET [1] = target: T1, RET (Homo sapiens, UniProt P07949); test: Luciferase reporter-gene assay (PathDetect Elk-1), RET reporter cells; format: cell-based; conditions: RET reporter cell line
T1 construct: full-length human RET (long isoform) in pCR3.1; expressed in transfected cells; host or cells: MG87RET murine fibroblasts
T1 sequence (P07949 29-1114): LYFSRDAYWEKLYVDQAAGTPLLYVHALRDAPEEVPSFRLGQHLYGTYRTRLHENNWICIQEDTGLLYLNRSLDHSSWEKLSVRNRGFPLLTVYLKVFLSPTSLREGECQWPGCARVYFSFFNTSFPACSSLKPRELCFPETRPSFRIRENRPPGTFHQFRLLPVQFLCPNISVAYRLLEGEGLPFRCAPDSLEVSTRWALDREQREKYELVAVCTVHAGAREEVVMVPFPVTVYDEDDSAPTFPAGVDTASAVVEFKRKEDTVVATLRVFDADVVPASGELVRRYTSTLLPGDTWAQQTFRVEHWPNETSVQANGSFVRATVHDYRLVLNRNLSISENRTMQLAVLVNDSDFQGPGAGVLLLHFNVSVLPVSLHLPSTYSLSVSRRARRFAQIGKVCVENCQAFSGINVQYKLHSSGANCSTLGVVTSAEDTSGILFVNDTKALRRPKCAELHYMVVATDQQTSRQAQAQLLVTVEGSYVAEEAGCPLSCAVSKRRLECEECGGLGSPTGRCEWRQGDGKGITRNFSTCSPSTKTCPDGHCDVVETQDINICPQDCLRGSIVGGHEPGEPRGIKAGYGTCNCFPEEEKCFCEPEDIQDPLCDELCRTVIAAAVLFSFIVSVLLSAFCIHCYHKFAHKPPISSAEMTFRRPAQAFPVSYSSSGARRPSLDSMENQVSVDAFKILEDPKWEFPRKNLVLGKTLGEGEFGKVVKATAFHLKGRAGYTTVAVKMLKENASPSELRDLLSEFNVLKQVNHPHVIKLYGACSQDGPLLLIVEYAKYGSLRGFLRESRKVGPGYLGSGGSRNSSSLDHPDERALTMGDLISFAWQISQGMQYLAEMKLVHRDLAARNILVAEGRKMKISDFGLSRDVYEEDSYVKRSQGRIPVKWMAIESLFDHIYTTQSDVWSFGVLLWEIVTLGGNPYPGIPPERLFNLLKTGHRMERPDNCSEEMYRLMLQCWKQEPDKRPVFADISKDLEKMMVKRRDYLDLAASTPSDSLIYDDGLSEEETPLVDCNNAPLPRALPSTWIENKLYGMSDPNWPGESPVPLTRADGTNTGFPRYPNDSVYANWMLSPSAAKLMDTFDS

[2] = target: T2, Protein Tyrosine Phosphatase, PTPRC (CD45) (Homo sapiens, UniProt P08575); test: CEREP Protein Tyrosine Phosphatase, PTPRC (CD45); format: biochemical; conditions: BT13 1 μM; Cat. No. 3956; average of duplicate; read-out: Percentage of inhibition/potentiation from control
T2 construct: purchased CEREP (contract screening, standard company protocols) 3956
T2 sequence (P08575 26-1306): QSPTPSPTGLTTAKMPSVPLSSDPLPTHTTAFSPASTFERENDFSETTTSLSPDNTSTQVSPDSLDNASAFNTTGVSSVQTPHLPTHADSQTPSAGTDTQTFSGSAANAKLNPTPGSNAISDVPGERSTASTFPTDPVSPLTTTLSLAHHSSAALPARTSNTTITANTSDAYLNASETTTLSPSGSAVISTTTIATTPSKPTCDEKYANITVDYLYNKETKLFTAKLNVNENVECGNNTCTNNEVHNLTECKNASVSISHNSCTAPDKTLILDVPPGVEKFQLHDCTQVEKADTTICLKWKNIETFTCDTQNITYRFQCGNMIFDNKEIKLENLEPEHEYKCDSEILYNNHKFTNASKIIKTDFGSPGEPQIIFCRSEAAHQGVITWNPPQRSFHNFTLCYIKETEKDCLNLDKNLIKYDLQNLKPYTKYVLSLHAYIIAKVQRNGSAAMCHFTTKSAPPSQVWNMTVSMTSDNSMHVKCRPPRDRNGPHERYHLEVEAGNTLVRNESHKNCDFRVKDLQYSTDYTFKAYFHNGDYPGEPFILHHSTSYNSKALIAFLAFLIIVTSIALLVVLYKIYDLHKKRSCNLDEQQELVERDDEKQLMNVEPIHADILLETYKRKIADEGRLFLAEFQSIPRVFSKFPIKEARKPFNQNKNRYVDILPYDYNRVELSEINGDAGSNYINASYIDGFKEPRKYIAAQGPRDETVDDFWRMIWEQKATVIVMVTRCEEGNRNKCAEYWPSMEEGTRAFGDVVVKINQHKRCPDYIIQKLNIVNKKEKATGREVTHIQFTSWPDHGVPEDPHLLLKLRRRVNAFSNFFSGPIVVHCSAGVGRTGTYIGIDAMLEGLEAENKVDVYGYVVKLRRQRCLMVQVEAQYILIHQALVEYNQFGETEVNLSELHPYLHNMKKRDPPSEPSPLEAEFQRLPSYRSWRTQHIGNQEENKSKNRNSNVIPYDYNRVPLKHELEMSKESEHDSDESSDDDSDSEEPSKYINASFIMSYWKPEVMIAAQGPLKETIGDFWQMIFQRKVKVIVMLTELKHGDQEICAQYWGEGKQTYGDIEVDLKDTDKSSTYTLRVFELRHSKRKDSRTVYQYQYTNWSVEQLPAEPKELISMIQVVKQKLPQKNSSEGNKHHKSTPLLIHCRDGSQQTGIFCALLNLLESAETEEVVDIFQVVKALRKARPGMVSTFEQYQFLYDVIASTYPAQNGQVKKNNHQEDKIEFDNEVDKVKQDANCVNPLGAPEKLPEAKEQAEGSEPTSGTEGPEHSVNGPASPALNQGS

[3] = tested on: Akt and Erk phosphorylation in parental MG87 cells; test: Erk1/2 and Akt phosphorylation assay in parental MG87 cells; format: cell-based, murine; conditions: BT13 10–100 μM
rats = test: Tolerability: weight gain, toxic signs, pathological analysis of major organs; format: in vivo, rat
[4] = target: T3, opioid receptor delta (DOP) (Mus musculus, UniProt P32300); test: CEREP Delta (DOP) (agonist effect); format: cell-based; conditions: BT13 1 μM, Cat. No. 2568, average of duplicate, read-out: Percentage of inhibition/potentiation from control
T3 construct: purchased CEREP (contract assay) 2568
T3 sequence (P32300 whole entry): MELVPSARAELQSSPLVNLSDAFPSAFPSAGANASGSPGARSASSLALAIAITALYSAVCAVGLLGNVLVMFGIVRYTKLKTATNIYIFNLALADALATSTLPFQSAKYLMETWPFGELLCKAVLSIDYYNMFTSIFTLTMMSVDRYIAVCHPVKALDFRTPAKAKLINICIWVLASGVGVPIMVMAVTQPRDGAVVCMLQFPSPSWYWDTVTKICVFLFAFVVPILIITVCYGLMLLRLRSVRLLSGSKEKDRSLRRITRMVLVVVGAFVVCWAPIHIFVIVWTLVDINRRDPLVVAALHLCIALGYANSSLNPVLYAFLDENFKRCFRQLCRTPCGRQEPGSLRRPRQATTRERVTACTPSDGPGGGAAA

CYP2C9 = target: T4, CYP2C9 (Homo sapiens, UniProt P11712); test: CYP inhibition, fluorescent assay; format: biochemical; conditions: read-out: Inhibition of CYP isoforms (IC50), CYP2C9
T4 construct: Cyathus Exquirere (contract laboratory)
T4 sequence (P11712 whole entry, canonical isoform): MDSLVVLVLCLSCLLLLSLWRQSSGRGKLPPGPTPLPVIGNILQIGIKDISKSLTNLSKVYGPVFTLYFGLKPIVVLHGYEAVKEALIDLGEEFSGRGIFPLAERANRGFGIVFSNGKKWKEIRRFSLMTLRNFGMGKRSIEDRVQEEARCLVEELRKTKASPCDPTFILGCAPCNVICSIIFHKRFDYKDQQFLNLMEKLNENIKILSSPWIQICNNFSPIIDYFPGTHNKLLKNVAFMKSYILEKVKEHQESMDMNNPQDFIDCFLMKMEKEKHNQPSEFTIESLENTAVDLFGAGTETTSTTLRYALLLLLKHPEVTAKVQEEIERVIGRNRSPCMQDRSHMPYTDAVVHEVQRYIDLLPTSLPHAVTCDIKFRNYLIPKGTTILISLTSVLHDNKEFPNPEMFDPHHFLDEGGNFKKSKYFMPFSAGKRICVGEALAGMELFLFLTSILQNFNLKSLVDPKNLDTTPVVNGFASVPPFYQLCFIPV

RET [5] = target: T1, RET; test: RET phosphorylation assay in MG87RET fibroblasts (GFRα3/RET and GFP/RET); format: cell-based, murine; conditions: 25–50 μM; in the presence and absence of GFRα3 co-receptor
[6] = target: Ca2+ channel (L, diltiazem site) (Rattus norvegicus, UniProt P22002); test: CEREP Ca2+ channel (L, diltiazem site) (benzothiazepines) (antagonist radioligand); format: binding; conditions: BT13 1 μM; Cat. No. 0162; average of duplicate; read-out: Percentage of inhibition/potentiation from control
[7] = Pharmacokinetics after intravenous injection; format: in vivo; conditions: rat, 10 mg/kg intravenously
[8] = tested on: Akt and Erk phosphorylation in MG87TrkB; test: Erk1/2 and Akt phosphorylation assay in MG87TrkB cells; format: cell-based, murine; conditions: BT13 10–100 μM, BDNF positive control
Description: MG87RET, MG87TrkA, or MG87TrkB were plated on 35 mm tissue culture dishes 1–2 days before the experiment to achieve 90–95% of confluency of the cells at the day of stimulation with tested substances. If necessary, cells were transfected with 4 μg/well of GFRα1-, GFRα3-, or green fluorescent protein (GFP)-expressing plasmid using Lipofectamine 2000 (Invitrogen) for DNA delivery as described by manufacturer. Before the experiment cells were starved in serum-free DMEM containing 15 mM HEPES, pH 7.2 and 1% DMSO for 4 h and stimulated with BT13 or neurotrophic factors. Then cells were washed once with ice-cold PBS containing 1 mM Na3VO4 and 1 mM NaF and lysed on ice in 1 ml per well of RIPA-modified buffer (50 mM Tris-HCl, pH 7.4, 150 mM NaCl, 1 mM EDTA, 1% NP-40, 1% TX-100, 10% glycerol, EDTA-free protease inhibitor cocktail (Roche), 1 mM Na3VO4, 2.5 mg/ml of sodium deoxycholate, 1 mM NaF). Plates were incubated at +4°C on the horizontal shaker for 30 min with vigorous shaking. Afterwards, 80–100 μl aliquot was taken from each well to prepare whole cell lysates. This aliquot was mixed with equal volume of 2x Laemmli loading buffer (4% SDS, 20% glycerol, 10% 2-mercaptoethanol, 0.004% bromphenol blue, 0.125 M Tris HCl, pH 6.8) and boiled for 10 min at 100°C. Remaining cell lysates were used for immunoprecipitation of RET or Trk receptors. […]

dopamine receptor D1 = dopamine receptor D1 (Homo sapiens, UniProt P21728); test: CEREP D1 (h) (antagonist radioligand); format: binding; conditions: BT13 1 μM; Cat. No. 0044; average of duplicate; read-out: Percentage of inhibition/potentiation from control
Sequence of dopamine receptor D1 (P21728 whole entry): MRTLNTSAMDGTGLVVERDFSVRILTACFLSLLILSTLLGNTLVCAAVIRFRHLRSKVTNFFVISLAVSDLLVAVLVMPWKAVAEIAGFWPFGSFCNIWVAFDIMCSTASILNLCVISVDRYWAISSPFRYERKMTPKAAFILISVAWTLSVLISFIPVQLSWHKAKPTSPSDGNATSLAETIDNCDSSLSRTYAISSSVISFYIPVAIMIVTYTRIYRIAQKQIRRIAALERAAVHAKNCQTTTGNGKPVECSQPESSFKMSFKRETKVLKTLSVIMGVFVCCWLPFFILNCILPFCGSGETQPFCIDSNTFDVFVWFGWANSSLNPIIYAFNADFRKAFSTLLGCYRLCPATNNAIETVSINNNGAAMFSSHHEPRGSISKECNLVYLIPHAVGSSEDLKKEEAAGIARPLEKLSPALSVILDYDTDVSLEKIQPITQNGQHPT

[9] = target: T5, Protein Serine/Threonine Phosphatase, PP2A (Homo sapiens, UniProt P67775); test: CEREP Protein Serine/Threonine Phosphatase, PP2A; format: biochemical; conditions: BT13 1 μM; Cat. No. 3953; average of duplicate; read-out: Percentage of inhibition/potentiation from control
T5 construct: purchased CEREP (contract assay) 3953
T5 sequence (P67775 whole entry): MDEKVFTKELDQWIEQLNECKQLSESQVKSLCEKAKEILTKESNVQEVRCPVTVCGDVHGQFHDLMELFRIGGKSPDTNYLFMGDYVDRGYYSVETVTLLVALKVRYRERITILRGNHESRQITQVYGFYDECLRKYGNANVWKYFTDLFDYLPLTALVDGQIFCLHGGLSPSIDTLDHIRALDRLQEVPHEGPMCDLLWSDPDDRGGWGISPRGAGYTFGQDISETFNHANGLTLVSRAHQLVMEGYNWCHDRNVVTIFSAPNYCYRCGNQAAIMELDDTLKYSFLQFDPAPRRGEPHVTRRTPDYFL

[10] = target: T6, monoamine oxidase A (MAO-A) (Rattus norvegicus, UniProt P21396); test: CEREP MAO-A (antagonist radioligand); format: binding; conditions: BT13 1 μM; Cat. No. 0443; average of duplicate; read-out: Percentage of inhibition/potentiation from control
T6 construct: purchased CEREP (contract assay) 0443
T6 sequence (P21396 whole entry): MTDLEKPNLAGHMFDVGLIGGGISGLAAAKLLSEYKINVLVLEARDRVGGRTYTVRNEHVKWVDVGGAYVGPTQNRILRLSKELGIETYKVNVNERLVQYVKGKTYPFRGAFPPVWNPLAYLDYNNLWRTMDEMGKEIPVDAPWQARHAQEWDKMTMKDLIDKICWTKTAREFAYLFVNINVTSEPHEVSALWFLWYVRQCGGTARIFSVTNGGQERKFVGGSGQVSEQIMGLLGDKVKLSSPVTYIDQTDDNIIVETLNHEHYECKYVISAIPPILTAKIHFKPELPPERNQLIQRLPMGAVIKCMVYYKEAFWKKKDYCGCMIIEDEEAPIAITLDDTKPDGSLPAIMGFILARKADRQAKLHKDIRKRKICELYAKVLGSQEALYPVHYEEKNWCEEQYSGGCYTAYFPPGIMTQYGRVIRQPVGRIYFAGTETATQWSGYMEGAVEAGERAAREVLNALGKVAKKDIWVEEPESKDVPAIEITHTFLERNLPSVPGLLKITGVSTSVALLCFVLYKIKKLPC

neurotensin receptor NT = test: CEREP NT (non-selective; agonist radioligand); format: binding; conditions: BT13 1 μM; Cat. No. 0465; average of duplicate
[11] = target: norepinephrine transporter (Homo sapiens, UniProt P23975); test: biochemical; conditions: read-out: Percentage of inhibition/potentiation from control

Sequence of neurokinin receptor NK2 (P21452 whole entry): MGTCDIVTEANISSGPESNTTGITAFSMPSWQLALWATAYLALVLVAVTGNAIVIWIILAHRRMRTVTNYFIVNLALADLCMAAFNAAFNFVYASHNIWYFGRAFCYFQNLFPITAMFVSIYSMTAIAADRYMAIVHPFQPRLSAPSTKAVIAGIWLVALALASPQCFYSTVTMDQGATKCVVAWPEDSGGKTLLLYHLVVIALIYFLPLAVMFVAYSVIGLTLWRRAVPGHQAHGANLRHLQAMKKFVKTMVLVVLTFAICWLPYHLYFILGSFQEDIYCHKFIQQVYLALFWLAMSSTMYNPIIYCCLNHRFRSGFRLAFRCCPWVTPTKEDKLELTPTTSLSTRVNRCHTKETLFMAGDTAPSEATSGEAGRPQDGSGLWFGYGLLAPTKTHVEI

In the case of `CCN(CC)S(=O)(=O)c1ccc(OC)c(N2CCN(C(=O)c3ccc(F)cc3C(F)(F)F)CC2)c1` [BT13], the “Cytotoxicity to human hepatoma cells (HepG2; LD50)” value (HepG2 cells) is reported as 90.4 ± 8.5 µM, the inhibition at 1 µM (neurokinin receptor NK2) is reported as 5% and the “efficacy, fold induction of luciferase above baseline” value (RET [1]) is reported as 7.4 fold. For the same compound, the EC50 (RET [1]; 0.1–50 μM, read-out: EC50, luciferase activation) was 20.7 µM, the inhibition at 1 µM [2] was -3% and the “Akt and Erk phosphorylation” value [3] was “no Akt or Erk phosphorylation was observed”. The “significant histopathological changes in major organs” value (rats; after completion of behavioral experiments) was “not detected”, the “acute toxic effects, signs of pain or discomfort” value (rats; experimental animals treated with BT13) was “No acute toxic effects, signs of pain or obvious discomfort” and the “tumor formation in the tissues of rats” value (rats; rat, in vivo) was “no tumor formation”. For the same compound, the inhibition at 1 µM [4] was -5.2%, the IC50 (CYP2C9) was over 100 µM and the “RET phosphorylation (170 kD mature glycosylated form), Western blotting” value (RET [5]) was “elicited phosphorylation”. It also gave an inhibition at 1 µM [6] of 16%, a Kp ([7]; male, Sprague Dawley, iv, plasma and brain samples 1, 3 and 6 h, read-out: BBB penetration) of 0.55 to 0.68 and a clearance ([7]; male, Sprague Dawley, plasma, iv) of 78.3 mL/min. For the same compound, the Vd ([7]; male, Sprague Dawley, plasma, iv, one-compartment model) was 23.6 L/kg, the half-life ([7]; male, Sprague Dawley, plasma, iv, one-compartment model, read-out: t1/2 (half-life in the blood) (converted)) was 3.47 h and the BBB penetration ([7]; plasma and brain samples 1, 3 and 6 h, 10 mg/kg) was 55–68%. The “Akt and Erk phosphorylation” value [8] was “no Akt or Erk phosphorylation was observed”, the inhibition at 1 µM (dopamine receptor D1) was -17% and the inhibition at 1 µM [9] was 4%. The inhibition at 1 µM [10] was 5%, the “Percentage of inhibition/potentiation from control” value (neurotensin receptor NT) was −6% and the inhibition at 1 µM [11] was -5%.

From publication PMC5478727, “A Novel Small Molecule GDNF Receptor RET Agonist, BT13, Promotes Neurite Growth from Sensory Neurons in Vitro and Attenuates Experimental Neuropathy in the Rat” (Frontiers in Pharmacology, 2017)
